Data as given in US20050009840A1 (SUGEN, INC., priority 2003, published 2005).
Read-outs that look alike come from different tables or passages of the source.

Biological target: T1, HGFR (Homo sapiens, UniProt P08581)
T1 construct: purchased Upstate 14-526
Assay: HGFR continuous-coupled spectrophotometric assay
Format: biochemical
Conditions: for inhibition at 1 µM: Table 8, library procedure 43, read-out: % Inhibition (percent c-MET inhibition)

[1] = cells prefixed Ki, read-out: Met Ki
[2] = Table 3, column 'Ki (μM) or I (%)': cells without % sign, read-out: Ki

T1 sequence (P08581 974-1390 limits assumed): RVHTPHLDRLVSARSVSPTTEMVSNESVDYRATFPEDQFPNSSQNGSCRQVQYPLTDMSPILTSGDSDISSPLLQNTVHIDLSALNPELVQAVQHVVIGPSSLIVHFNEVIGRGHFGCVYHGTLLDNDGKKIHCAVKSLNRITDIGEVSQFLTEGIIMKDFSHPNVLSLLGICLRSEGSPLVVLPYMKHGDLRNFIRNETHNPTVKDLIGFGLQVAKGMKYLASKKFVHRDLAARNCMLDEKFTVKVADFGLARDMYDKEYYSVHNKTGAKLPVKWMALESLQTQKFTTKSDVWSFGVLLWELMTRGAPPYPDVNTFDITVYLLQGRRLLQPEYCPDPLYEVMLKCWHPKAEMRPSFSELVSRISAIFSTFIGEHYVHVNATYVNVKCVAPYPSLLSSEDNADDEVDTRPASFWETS

Ki [1] | SMILES | other results
– | CC1CN(C(=O)c2ccc(-c3cnc(N)c(OCc4ccc(C(=O)NCCN5CCCC5)cc4)c3)cc2)CC(C)N1 (stereo not drawn) | inhibition at 1 µM: 12%
– | CCN1CCCC1CNC(=O)c1cccc(COc2cc(-c3ccc(C(=O)N4CC(C)NC(C)C4)cc3)cnc2N)c1 (stereo not drawn) | inhibition at 1 µM: 10%
0.61 µM | CC(Oc1cc(C#CC(C)(C)NC(=O)N2CCN(C)CC2)cnc1N)c1c(Cl)ccc(F)c1Cl (stereo not drawn) [Example I-432, 4-Methyl-piperazine-1-carboxylic acid (3-{6-amino-5-[1-(2,6-dichloro-3-fluoro-phenyl)-ethoxy]-pyridin-3-yl}-1,1-dimethyl-prop-2-ynyl)-amide] | –
1.5 µM | CC(Oc1cc(C#CC(C)(C)NC(=O)N2C[C@@H](C)N[C@@H](C)C2)cnc1N)c1c(Cl)ccc(F)c1Cl (stereo partly drawn) [Example I-433, (3R,5S)-3,5-Dimethyl-piperazine-1-carboxylic acid (3-{6-amino-5-[1-(2,6-dichloro-3-fluoro-phenyl)-ethoxy]-pyridin-3-yl}-1,1-dimethyl-prop-2-ynyl)-amide] | –
1.22 µM | CC(Oc1cc(C#CC(C)(C)NC(=O)N2CCC[C@@H]2CN2CCCC2)cnc1N)c1c(Cl)ccc(F)c1Cl (stereo partly drawn) [Example I-434, (R)-2-Pyrrolidin-1-ylmethyl-pyrrolidine-1-carboxylic acid (3-{6-amino-5-[1-(2,6-dichloro-3-fluoro-phenyl)-ethoxy]-pyridin-3-yl}-1,1-dimethyl-prop-2-ynyl)-amide] | –
1.58 µM | CC(Oc1cc(C#CC(C)(C)NC(=O)N2CCC[C@H]2CN2CCCC2)cnc1N)c1c(Cl)ccc(F)c1Cl (stereo partly drawn) [Example I-435, (S)-2-Pyrrolidin-1-ylmethyl-pyrrolidine-1-carboxylic acid (3-{6-amino-5-[1-(2,6-dichloro-3-fluoro-phenyl)-ethoxy]-pyridin-3-yl}-1,1-dimethyl-prop-2-ynyl)-amide] | –
1.11 µM | CC(Oc1cc(C#CC(C)(C)NC(=O)NCCN2CCOCC2)cnc1N)c1c(Cl)ccc(F)c1Cl (stereo not drawn) [Example I-436, 1-(3-{6-Amino-5-[1-(2,6-dicloro-3-fluoro-phenyl)-ethoxy]-pyridin-3-yl}-1,1-dimethyl-prop-2-ynyl)-3-(2-morpholin-4-yl-ethyl)-urea] | –
0.61 µM | CC(Oc1cc(C#CC(C)(C)NC(=O)NCCN2CCCC2)cnc1N)c1c(Cl)ccc(F)c1Cl (stereo not drawn) [Example I-437, 1-(3-{6-Amino-5-[1-(2,6-dicloro-3-fluoro-phenyl)-ethoxy]-pyridin-3-yl}-1,1-dimethyl-prop-2-ynyl)-3-(2-pyrrolidin-1-yl-ethyl)-urea] | –
0.72 µM | CC(Oc1cc(C#CC(C)(C)NC(=O)N2CCC(N3CCCC3)CC2)cnc1N)c1c(Cl)ccc(F)c1Cl (stereo not drawn) [Example I-438, 4-Pyrrolidin-1-yl-pipendine-1-carboxylic acid (3-{6-amino-5-[1-(2,6-dichloro-3-fluoro-phenyl)-ethoxy]-pyridin-3-yl}-1,1-dimethyl-prop-2-ynyl)-amide] | –
0.46 µM | CC(Oc1cc(C#CC(=O)NC2CCCCC2)cnc1N)c1c(Cl)ccc(F)c1Cl (stereo not drawn) [Example I-439, 3-{6-Amino-5-[1-(2,6-dichloro-3-fluoro-phenyl)-ethoxy]-pyridin-3-yl}-propynoic acid cyclohexylamide] | –
0.43 µM | CC(C)NC(=O)C#Cc1cnc(N)c(OC(C)c2c(Cl)ccc(F)c2Cl)c1 (stereo not drawn) [Example I-440, 3-{6-Amino-5-[1-(2,6-dichloro-3-fluoro-phenyl)-ethoxy]-pyridin-3-yl}-propynoic acid isopropylamide] | –
1.06 µM | CC(Oc1cc(C#CC(C)(C)N)ccc1N)c1c(Cl)ccc(F)c1Cl (stereo not drawn) [Example I-441, 4-(3-Amino-3-methyl-but-1-ynyl)-2-[1-(2,6-dichloro-3-fluoro-phenyl)-ethoxy]-phenylamine] | –
0.68 µM | C=Cc1cnc(N)c(OC(C)c2c(Cl)ccc(F)c2Cl)c1 (stereo not drawn) [Example I-461, 3-[1-(2,6-Dichloro-3-fluoro-phenyl)-ethoxy]-5-vinyl-pyridin-2-ylamine] | –
0.34 µM | CC(Oc1cc(-c2cnn(CCN3CCCC3)c2)cnc1N)c1c(Cl)ccc(F)c1Cl (stereo not drawn) [Example I-465, 3-[1-(2,6-Dichloro-3-fluoro-phenyl)-ethoxy]-5-[1-(2-pyrrolidin-1-yl-ethyl)-1H-pyrazol-4-yl]-pyridin-2-ylamine] | –
0.47 µM | CC(Oc1cc(-c2cnn(CCN(C(C)C)C(C)C)c2)cnc1N)c1c(Cl)ccc(F)c1Cl (stereo not drawn) [Example I-466, 3-[1-(2,6-Dichloro-3-fluoro-phenyl)-ethoxy]-5-[1-(2-diisopropylamino-ethyl)-1H-pyrazol-4-yl]-pyridin-2-yl amine] | –
0.083 µM | CC(Oc1cc(-c2cnn(CCN3CCOCC3)c2)cnc1N)c1c(Cl)ccc(F)c1Cl (stereo not drawn) [Example I-467, 3-[1-(2,6-Dichloro-3-fluoro-phenyl)-ethoxy]-5-[1-(2-morpholin-4-yl-ethyl)-1H-pyrazol-4-yl]-pyridin-2-ylamine] | –
12.1 µM | CC(C)Oc1c(F)cccc1COc1cc(Br)cnc1N [Example I-472, 5-Bromo-3-(3-fluoro-2-isopropoxy-benzyloxy)-pyridin-2-ylamine] | –

Ki [1] | SMILES | other results
12.7 µM | CC(C)Oc1c(F)cccc1COc1cc(-c2ccc(C(=O)N3C[C@@H](C)N[C@@H](C)C3)cc2)cnc1N [Example I-473, {4-[6-Amino-5-(3-fluoro-2-isopropoxy-benzyloxy)-pyridin-3-yl]-phenyl}-((3R,5S)-3,5-dimethyl-piperazin-1-yl)-methanone] | –
0.2 µM | COC(=O)COc1ccc(-c2cnc(N)c(OC(C)c3c(Cl)ccc(F)c3Cl)c2)cc1 (stereo not drawn) [Example I-475, (4-{6-Amino-5-[1-(2,6-dichloro-3-fluoro-phenyl)-ethoxy]-pyridin-3-yl}-phenoxy)-acetic acid methyl ester] | –
0.2 µM | CC(Oc1cc(-c2ccc(OCC(=O)O)cc2)cnc1N)c1c(Cl)ccc(F)c1Cl (stereo not drawn) [Example I-476, (4-{6-Amino-5-[1-(2,6-dichloro-3-fluoro-phenyl)-ethoxy]-pyridin-3-yl}-phenoxy)-acetic acid] | –
0.027 µM | CC(Oc1cc(-c2ccc(OCC(=O)N3C[C@@H](C)N[C@@H](C)C3)cc2)cnc1N)c1c(Cl)ccc(F)c1Cl (stereo partly drawn) [Example I-477, 2-(4-{6-Amino-5-[1-(2,6-dichloro-3-fluoro-phenyl)-ethoxy]-pyridin-3-yl}-phenoxy)-1-((3R,5S)-3,5-dimethyl-piperazin-1-yl)-ethanone] | –
0.041 µM | CC(Oc1cc(-c2ccc(OCC(=O)N3CC[C@@H](O)C3)cc2)cnc1N)c1c(Cl)ccc(F)c1Cl (stereo partly drawn) [Example I-478, 2-(4-{6-Amino-5-[1-(2,6-dichloro-3-fluoro-phenyl)-ethoxy]-pyridin-3-yl}-phenoxy)-1-((R)-3-hydroxy-pyrrolidin-1-yl)-ethanone] | –
0.16 µM | CC(Oc1cc(-c2ccc(OCC(=O)N3CCN(C(=O)OC(C)(C)C)CC3)cc2)cnc1N)c1c(Cl)ccc(F)c1Cl (stereo not drawn) [Example I-479, 4-[2-(4-{6-Amino-5-[1-(2,6-dichloro-3-fluoro-phenyl)-ethoxy]-pyridin-3-yl}-phenoxy)-acetyl]-piperazine-1-carboxylic acid tert-butyl ester] | –
3.3 µM | CC(Oc1cc(-c2ccc(OCCN3CCCC3)cc2)cnc1N)c1cccc(F)c1Cl (stereo not drawn) [Example I-487, 3-[1-(2-Chloro-3-fluoro-phenyl)-ethoxy]-5-[4-(2-pyrrolidin-1-yl-ethoxy)-phenyl]-pyridin-2-ylamine] | –
– | CC(Oc1cc(-c2ccc(F)c(C#N)c2)cnc1N)c1c(Cl)ccc(F)c1Cl (stereo not drawn) [Example I-544, 5-{6-Amino-5-[1-(2,6-dichloro-3-fluoro-phenyl)-ethoxy]-pyridin-3-yl}-2-fluoro-benzonitrile] | Ki [2]: 0.091 µM
– | CC(Oc1cc(-c2ccc(C(=O)N3CCCCC3)cc2)cnc1N)c1c(Cl)ccc(F)c1Cl (stereo not drawn) [Example I-546, (4-{6-Amino-5-[1-(2,6-dichloro-3-fluoro-phenyl)-ethoxy]-pyridin-3-yl}-phenyl)-pipendin-1-yl-methanone] | Ki [2]: 0.057 µM
– | CC(Oc1cc(-c2ccc(C(=O)N3CCCC3)cc2)cnc1N)c1c(Cl)ccc(F)c1Cl (stereo not drawn) [Example I-547, (4-{6-Amino-5-[1-(2,6-dichloro-3-fluoro-phenyl)-ethoxy]-pyridin-3-yl}-phenyl)-pyrrolidin-1-yl-methanone] | Ki [2]: 0.067 µM
– | CC(Oc1cc(-c2ccc(CN3C[C@@H](C)N[C@@H](C)C3)cc2)cnc1N)c1c(Cl)ccc(F)c1Cl (stereo partly drawn) [Example I-549, 3-[1-(2,6-Dichloro-3-fluoro-phenyl)-ethoxy]-5-[4-(dimethyl-piperazin-1-ylmethyl)-phenyl]-pyridin-2-ylamine] | Ki [2]: 0.095 µM
– | CC(Oc1cc(-c2ccc(C(=O)N3C[C@@H](C)N[C@@H](C)C3)c(F)c2)cnc1N)c1c(Cl)ccc(F)c1Cl (stereo partly drawn) [Example I-551, (4-{6-Amino-5-[1-(2,6-dichloro-3-fluoro-phenyl)-ethoxy]-pyridin-3-yl}-2-fluoro-phenyl)-(dimethyl-piperazin-1-yl)-methanone] | Ki [2]: 0.091 µM
– | CC(Oc1cc(-c2ccc(C(=O)N3C[C@@H](C)N[C@@H](C)C3)cc2F)cnc1N)c1c(Cl)ccc(F)c1Cl (stereo partly drawn) [Example I-552, (4-{6-Amino-5-[1-(2,6-dichloro-3-fluoro-phenyl)-ethoxy]-pyridin-3-yl}-3-fluoro-phenyl)-(dimethyl-piperazin-1-yl)-methanone] | Ki [2]: 0.224 µM
– | Cc1cc(C(=O)N2C[C@@H](C)N[C@@H](C)C2)ccc1-c1cnc(N)c(OC(C)c2c(Cl)ccc(F)c2Cl)c1 (stereo partly drawn) [Example I-553, (4-{6-Amino-5-[1-(2,6-dichloro-3-fluoro-phenyl)-ethoxy]-pyridin-3-yl)-3-methyl-phenyl)-(dimethyl-piperazin-1-yl)-methanone] | Ki [2]: 0.259 µM
– | CC(Oc1cc(-c2ccc(C(=O)N3C[C@@H](C)O[C@@H](C)C3)cc2)cnc1N)c1c(Cl)ccc(F)c1Cl (stereo partly drawn) [Example I-554, (4-{6-Amino-5-[1-(2,6-dichloro-3-fluoro-phenyl)-ethoxy]-pyridin-3-yl}-phenyl)-((2R,6S)-2,6-dimethyl-morpholin-4-yl)-methanone] | Ki [2]: 0.141 µM
– | COc1ccc(OC)c(-c2cnc(N)c(OC(C)c3c(Cl)ccc(F)c3Cl)c2)c1 (stereo not drawn) [Example I-556, 3-[1-(2,6-Dichloro-3-fluoro-phenyl)-ethoxy]-5-(2,5-dimethoxy-phenyl)-pyridin-2-ylamine] | Ki [2]: 0.575 µM
